From patent US20160355530A1, “HEPATITIS C INHIBITORS AND USES THEREOF” (AbbVie Inc., priority 2010, published 2016)
Like-named read-outs stand apart in the source and are kept apart here.

Tests used:
[1] = test system: chimeric replicon with genotype 3a NS5B; experiment: microbe, parasite or virus in culture; assay type: cell-based, HCV genotype 3a; settings: Hepatitis C virus, read-out: 3a chimera 5% FBS EC50
[2] = test system: chimeric replicon with genotype 2b NS5B; experiment: microbe, parasite or virus in culture; assay type: cell-based, HCV genotype 2b; settings: Hepatitis C virus, read-out: 2b chimera 5% FBS EC50
[3] = test system: HCV 1b-BB7 subgenomic replicon; experiment: microbe, parasite or virus in culture; assay type: cell-based, HCV genotype 1b; settings: Hepatitis C virus, stable replicon
[4] = test system: HCV 1a-H77 transient subgenomic replicon in Huh-7 derived cell line; experiment: microbe, parasite or virus in culture; assay type: cell-based, HCV genotype 1a; settings: Hepatitis C virus, Huh-7; transient replicon, 5% FBS; read-out: Transient Replicon 1a H77 5% FBS EC50
Method: (§1) In addition to the stable replicon inhibition assays, transient replicon assays were performed. Transient replicons are identical to the 1a-H77 and 1a-H77-C316Y constructs, except they lack the Neo gene, making it impossible to establish stable cell lines. A T7 Megascript RNA synthesis kit (Ambion) was used to transcribe the HCV subgenomic RNA. The HCV RNA was then precipitated with lithium chloride according to manufacturer's instructions. The HCV subgenomic replicon RNA was transfected via electroporation into a Huh-7 derived cell line as described (Middleton T, et al. J. Virological Methods 2007; 145(2): 137-145). Transfected cells were diluted and plated in 96 well plates at 5×10^3 cells per well in DMEM. Four hours post-transfection, the wells from one plate were harvested for luciferase measurement. This plate provides a measure of the amount of translatable input RNA, and therefore transfection efficiency. To the wells of the remaining plates, a 3-fold dilution series of test compounds was added in DMSO (0.5% DMSO final concentration), and plates were incubated at 37° C., 5% CO2 in a humidified incubator for 4 days. After this period, the media was removed and the plates were washed with 100 μL phosphate-buffered saline per well. For the luciferase assay, 30 μL of Passive Lysis buffer (Promega) was added to each well, and then the plates were incubated for 15 minutes with rocking to lyse the cells. Luciferin solution (100 μL, Promega) was added to each well, and luciferase activity was measured with a Victor II luminometer (Perkin-Elmer). The EC50 values were calculated using GraphPad Prism 4 software.

[5] = test system: HCV 1a-H77-C316Y transient subgenomic replicon in Huh-7 derived cell line; experiment: microbe, parasite or virus in culture; assay type: cell-based, HCV genotype 1a; settings: for EC50: Hepatitis C virus, Huh-7, read-out: Transient Replicon 1a H77-C316Y 5% FBS EC50; for Transient Replicon Fold Resistance C316Y/1a: ratio of transient replicon EC50s, C316Y / 1a H77
Method: as §1

[6] = target: T1, HCV NS5B polymerase 1b BK strain (Hepatitis C virus genotype 1b, UniProt P26663); experiment: HCV NS5B polymerase enzymatic inhibition assay, strain 1b BK; assay type: biochemical; settings: enzyme, strain 1b BK; read-out: HCV Polymerase Strain 1b BK IC50
T1 construct: six-histidine tag; made in house; host or cells: E. coli
Procedure, shortened: (§2)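 Recombinant NS5B (residues 1–570, His-tagged, E. coli-expressed) copied 5 nM of a 2.1 kb HCV 1b negative-strand 3′-end RNA template with 20 μM CTP, 20 μM ATP and 0.284 μM [3H]UTP for 3 h at 30 °C. Spermine-precipitated RNA was filter-captured and counted, and IC50 was fitted by nonlinear regression.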

[7] = test system: HCV 1a-H77 subgenomic replicon; experiment: microbe, parasite or virus in culture; assay type: cell-based, HCV genotype 1a; settings: Hepatitis C virus, stable replicon
[8] = test system: chimeric replicon with 2a-J6CF-derived NS5B; experiment: microbe, parasite or virus in culture; assay type: cell-based, HCV genotype 2a; settings: Hepatitis C virus, read-out: 2a chimera 5% FBS EC50
[9] = test system: chimeric replicon with genotype 4a NS5B; experiment: microbe, parasite or virus in culture; assay type: cell-based, HCV genotype 4a; settings: Hepatitis C virus, read-out: 4a chimera 5% FBS EC50
[10] = target: T2, HCV NS5B polymerase 1a-H77-C316Y (Hepatitis C virus genotype 1a, UniProt P27958, C2736Y); experiment: biochemical; set-up: species or system HCV genotype 1a
T2 construct: six-histidine tag; made in house; host or cells: E. coli
Procedure, shortened: as §2

[11] = test system: HCV NS5B polymerase 1a-H77-C316Y; experiment: biochemical; set-up: species or system HCV genotype 1a; settings: ratio of enzyme IC50s, 1a H77-C316Y / 1a H77
Procedure, shortened: as §2

[12] = target: T3, HCV NS5B polymerase 1a-H77 (Hepatitis C virus genotype 1a, UniProt P27958); experiment: biochemical; set-up: species or system HCV genotype 1a; settings: enzyme, strain 1a H77; read-out: HCV Polymerase Strain 1a H77 IC50
T3 construct: six-histidine tag; made in house; host or cells: E. coli
Procedure, shortened: as §2

[13] = strain 1b BB7, 5% FBS + 40% human plasma, read-out: 1b BB7 5% FBS + 40% Human Plasma EC50
[14] = strain 1b BB7, 5% FBS, no human plasma, read-out: 1b BB7 5% FBS EC50
[15] = strain 1b BB7, 5% FBS, read-out: 1b BB7 5% FBS EC50
[16] = 5% FBS, absence of human plasma, read-out: Stable Replicon 1a H77 5% FBS EC50
[17] = strain 1a H77, 5% FBS + 40% human plasma, read-out: 1a H77 5% FBS + 40% Human Plasma EC50
[18] = strain 1a H77, 5% FBS, no human plasma, read-out: 1a H77 5% FBS EC50
[19] = strain 1a H77, 5% FBS, read-out: 1a H77 5% FBS EC50

T3 sequence (P27958 2421-2990): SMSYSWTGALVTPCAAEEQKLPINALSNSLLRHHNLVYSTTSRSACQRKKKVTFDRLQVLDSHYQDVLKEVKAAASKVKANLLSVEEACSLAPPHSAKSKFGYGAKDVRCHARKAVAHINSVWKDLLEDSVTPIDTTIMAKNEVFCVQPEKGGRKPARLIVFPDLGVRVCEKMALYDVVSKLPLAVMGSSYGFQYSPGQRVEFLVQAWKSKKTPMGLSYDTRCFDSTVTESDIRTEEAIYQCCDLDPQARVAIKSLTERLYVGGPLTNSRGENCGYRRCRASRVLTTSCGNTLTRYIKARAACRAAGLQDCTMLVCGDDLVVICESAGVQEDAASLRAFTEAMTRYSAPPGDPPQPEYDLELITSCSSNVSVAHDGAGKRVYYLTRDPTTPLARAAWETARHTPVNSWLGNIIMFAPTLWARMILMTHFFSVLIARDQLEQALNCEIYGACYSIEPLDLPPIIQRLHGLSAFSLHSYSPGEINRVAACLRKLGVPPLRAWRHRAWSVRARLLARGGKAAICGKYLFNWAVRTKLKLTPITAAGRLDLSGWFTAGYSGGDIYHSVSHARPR
T2 sequence (P27958 2421-2990 C2736Y): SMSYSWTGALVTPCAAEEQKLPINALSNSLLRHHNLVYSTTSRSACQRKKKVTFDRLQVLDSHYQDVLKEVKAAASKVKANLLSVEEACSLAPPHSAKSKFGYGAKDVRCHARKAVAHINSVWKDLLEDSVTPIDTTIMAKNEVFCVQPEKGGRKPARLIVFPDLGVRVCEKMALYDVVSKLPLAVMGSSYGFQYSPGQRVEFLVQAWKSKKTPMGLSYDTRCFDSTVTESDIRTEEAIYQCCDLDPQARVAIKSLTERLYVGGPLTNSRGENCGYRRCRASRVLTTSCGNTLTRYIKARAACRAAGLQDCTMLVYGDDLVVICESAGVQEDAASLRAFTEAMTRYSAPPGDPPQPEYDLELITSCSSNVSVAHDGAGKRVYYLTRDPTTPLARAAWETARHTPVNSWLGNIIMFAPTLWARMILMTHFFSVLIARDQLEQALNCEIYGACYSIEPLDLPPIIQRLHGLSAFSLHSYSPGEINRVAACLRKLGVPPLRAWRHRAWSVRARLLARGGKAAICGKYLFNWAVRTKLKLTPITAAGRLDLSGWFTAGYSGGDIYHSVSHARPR
T1 sequence (P26663 2420-2989): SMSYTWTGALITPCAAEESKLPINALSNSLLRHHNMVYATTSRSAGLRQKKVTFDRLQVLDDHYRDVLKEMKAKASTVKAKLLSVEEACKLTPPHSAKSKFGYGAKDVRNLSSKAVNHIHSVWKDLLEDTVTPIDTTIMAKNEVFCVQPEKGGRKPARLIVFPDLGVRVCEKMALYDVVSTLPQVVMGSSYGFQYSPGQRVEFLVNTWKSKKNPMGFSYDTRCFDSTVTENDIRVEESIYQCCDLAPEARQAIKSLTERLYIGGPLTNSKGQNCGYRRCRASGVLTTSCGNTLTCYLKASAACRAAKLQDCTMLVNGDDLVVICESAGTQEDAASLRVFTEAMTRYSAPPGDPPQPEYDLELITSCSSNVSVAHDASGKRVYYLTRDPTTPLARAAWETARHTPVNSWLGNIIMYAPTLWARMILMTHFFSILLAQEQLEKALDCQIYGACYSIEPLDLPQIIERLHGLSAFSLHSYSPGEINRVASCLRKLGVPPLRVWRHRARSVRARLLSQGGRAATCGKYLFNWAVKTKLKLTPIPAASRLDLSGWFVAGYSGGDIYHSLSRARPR

CS(=O)(=O)N(CCCCO)c1cc2oc(-c3ccc(F)cc3)c(C3=NOCCN3)c2cc1C1CC1 [Example 8, N-[5-cyclopropyl-3-(5,6-dihydro-4H-1,2,4-oxadiazin-3-yl)-2-(4-fluorophenyl)-1-benzofuran-6-yl]-N-(4-hydroxybutyl)methanesulfonamide]
EC50 [1]: 19.9 nM
EC50 [2]: 101 nM
EC50 [3, 13]: 64 nM
EC50 [3, 14]: 10 nM
EC50 [3, 15]: 10 nM
EC50 [4]: 3.1 nM
EC50 [5]: 31.4 nM
Transient Replicon Fold Resistance C316Y/1a [5]: 10 fold
IC50 [6]: 27 nM
EC50 [7, 16]: 6.3 nM
EC50 [7, 17]: 36 nM
EC50 [7, 18]: 6.3 nM
EC50 [7, 19]: 6.3 nM
EC50 [8]: 117 nM
EC50 [9]: 71.6 nM
IC50 [10]: 31 nM
C316Y/1a Fold Resistance [11]: 6 fold
IC50 [12]: 4.9 nM

CS(=O)(=O)CCN(c1cc2oc(-c3ccc(F)cc3)c(C3=NOCCN3)c2cc1C1CC1)S(C)(=O)=O [Example 9, N-[5-cyclopropyl-3-(5,6-dihydro-4H-1,2,4-oxadiazin-3-yl)-2-(4-fluorophenyl)-1-benzofuran-6-yl]-N-[2-(methylsulfonyl)ethyl]methanesulfonamide]
EC50 [1]: 22.6 nM
EC50 [2]: 298 nM
EC50 [3, 13]: 138 nM
EC50 [3, 14]: 15 nM
EC50 [3, 15]: 15 nM
EC50 [4]: 7.7 nM
EC50 [5]: 57.5 nM
Transient Replicon Fold Resistance C316Y/1a [5]: 7 fold
IC50 [6]: 34 nM
EC50 [7, 16]: 8.4 nM
EC50 [7, 17]: 67 nM
EC50 [7, 18]: 8.4 nM
EC50 [7, 19]: 8.4 nM
EC50 [8]: 293 nM
EC50 [9]: 125 nM
IC50 [10]: 30 nM
C316Y/1a Fold Resistance [11]: 8 fold
IC50 [12]: 3.9 nM

CC1NC(c2c(-c3ccc(F)cc3)oc3cc(N(CCCCO)S(C)(=O)=O)c(C4CC4)cc23)=NO1 (stereo not drawn) [Example 11, N-[5-cyclopropyl-2-(4-fluorophenyl)-3-(5-methyl-4,5-dihydro-1,2,4-oxadiazol-3-yl)-1-benzofuran-6-yl]-N-(4-hydroxybutyl)methanesulfonamide]
EC50 [1]: 16.6 nM
EC50 [2]: 98.5 nM
EC50 [3, 13]: 199 nM
EC50 [3, 14]: 10.3 nM
EC50 [3, 15]: 10.3 nM
EC50 [4]: 3 nM
EC50 [5]: 34.4 nM
Transient Replicon Fold Resistance C316Y/1a [5]: 11 fold
IC50 [6]: 20 nM
EC50 [7, 16]: 8 nM
EC50 [7, 17]: 100 nM
EC50 [7, 18]: 8 nM
EC50 [7, 19]: 8 nM
EC50 [8]: 85 nM
EC50 [9]: 24.4 nM
IC50 [10]: 30 nM
C316Y/1a Fold Resistance [11]: 5 fold
IC50 [12]: 5.9 nM

CC1NC(c2c(-c3ccc(F)cc3)oc3cc(N(CCS(C)(=O)=O)S(C)(=O)=O)c(C4CC4)cc23)=NO1 (stereo not drawn) [Example 12, N-[5-cyclopropyl-2-(4-fluorophenyl)-3-(5-methyl-4,5-dihydro-1,2,4-oxadiazol-3-yl)-1-benzofuran-6-yl]-N-[2-(methylsulfonyl)ethyl]methanesulfonamide]
EC50 [1]: 26 nM
EC50 [2]: 221 nM
EC50 [3, 13]: 82 nM
EC50 [3, 14]: 11 nM
EC50 [3, 15]: 11 nM
EC50 [4]: 78 nM
EC50 [5]: 1220 nM
Transient Replicon Fold Resistance C316Y/1a [5]: 16 fold
IC50 [6]: 17 nM
EC50 [7, 16]: 42.6 nM
EC50 [7, 17]: 50 nM
EC50 [7, 18]: 42.6 nM
EC50 [7, 19]: 42.6 nM
EC50 [8]: 285 nM
EC50 [9]: 73.3 nM
IC50 [10]: 43 nM
C316Y/1a Fold Resistance [11]: 8 fold
IC50 [12]: 5.5 nM
